The results in this text go back to US12583858B2 (Genentech, Inc., priority 2015, dated 2026).

SMILES strings stand for the structures. A value given as a limit tells only on which side of the number the result lay.

In the test the target is T1, TDO2 (Homo sapiens, UniProt P48775).
T1 construct: decreased levels of NFK in SW48 cells (high TDO expressing cells)
T1 sequence (P48775 whole entry): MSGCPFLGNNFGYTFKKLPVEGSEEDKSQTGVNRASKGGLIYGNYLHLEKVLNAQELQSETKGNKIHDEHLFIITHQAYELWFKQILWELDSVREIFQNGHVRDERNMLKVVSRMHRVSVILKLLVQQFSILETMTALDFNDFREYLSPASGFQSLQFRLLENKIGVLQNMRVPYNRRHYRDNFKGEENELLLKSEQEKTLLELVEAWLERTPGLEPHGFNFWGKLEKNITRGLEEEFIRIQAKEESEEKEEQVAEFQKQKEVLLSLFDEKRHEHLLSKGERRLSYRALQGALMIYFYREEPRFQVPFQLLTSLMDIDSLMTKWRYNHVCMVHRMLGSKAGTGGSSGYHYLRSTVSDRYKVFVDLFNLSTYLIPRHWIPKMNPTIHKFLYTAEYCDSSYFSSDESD
Nature of the test: TDO2 cell assay (NFK GreenScreen, SW48 cells). The note with it: SW48 cells (high TDO expressing), 200 uM tryptophan, 24 hours; Table 3; read-out: TDO2 Cell Fluor EC50. Type of test: cell-based.
As a reminder, the EC50 is the concentration needed to bring the measured effect to its halfway point. Turning to `CC1(C)CCCC(C)(C2c3ccccc3-c3cncn32)C1O` (single isomer, unassigned) [Example 90c], the EC50 is 57 nM. Consider `CC1(C)CCCC(C)(C2c3ccccc3-c3cncn32)C1O` (single isomer, unassigned) [Example 90d], for which the EC50 turned out to be 9400 nM. As for `CC1(C)CCCC(C)(C2c3ccccc3-c3cncn32)C1O` (single isomer, unassigned) [Example 90f], the EC50 was 410 nM. The value for `CS(=O)(=O)c1ccc2c(c1)OCC(C1c3ccccc3-c3cncn31)C2O` (single isomer, unassigned) [Example 91a] was 2800 nM. On to `CS(=O)(=O)c1ccc2c(c1)OCC(C1c3ccccc3-c3cncn31)C2O` (single isomer, unassigned) [Example 91b], for which the EC50 is more than 25000 nM. As for `CS(=O)(=O)c1ccc2c(c1)OCC(C1c3ccccc3-c3cncn31)C2O` (single isomer, unassigned) [Example 91c], the figure is more than 25000 nM; as for `CS(=O)(=O)c1ccc2c(c1)OCC(C1c3ccccc3-c3cncn31)C2O` (single isomer, unassigned) [Example 91d], 360 nM. Take `CS(=O)(=O)c1ccc2c(c1)OCC(C1c3ccccc3-c3cncn31)C2O` (single isomer, unassigned) [Example 91e]: the EC50 came out at 6100 nM. `CS(=O)(=O)c1ccc2c(c1)OCC(C1c3ccccc3-c3cncn31)C2O` (single isomer, unassigned) [Example 91f]: the EC50 stood at 810 nM.

Take `CS(=O)(=O)c1ccc2c(c1)OCC(C1c3ccccc3-c3cncn31)C2O` (single isomer, unassigned) [Example 91g]: the EC50 was found to be 2300 nM. As for `CS(=O)(=O)c1ccc2c(c1)OCC(C1c3ccccc3-c3cncn31)C2O` (single isomer, unassigned) [Example 91h], the figure is more than 25000 nM. As for `CS(=O)(=O)N1CCC(O)C(C2c3ccccc3-c3cncn32)CC1` (single isomer, unassigned) [Example 92a], the half-maximal effective concentration (EC50) amounted to 1200 nM.

With `CS(=O)(=O)N1CCC(O)C(C2c3ccccc3-c3cncn32)CC1` (single isomer, unassigned) [Example 92b], the EC50 came out at 8600 nM.

As for `CS(=O)(=O)N1CCC(O)C(C2c3ccccc3-c3cncn32)CC1` (single isomer, unassigned) [Example 92c], the EC50 is 18000 nM. As to `CS(=O)(=O)N1CCC(O)C(C2c3ccccc3-c3cncn32)CC1` (single isomer, unassigned) [Example 92d], the EC50 worked out at 240 nM. The value for `Cn1ncc2c1CCC(C1c3ccccc3-c3cncn31)C2O` (single isomer, unassigned) [Example 93b] was 5500 nM. As for `Cn1ncc2c1CCC(C1c3ccccc3-c3cncn31)C2O` (single isomer, unassigned) [Example 93c], the figure is 1400 nM; as for `Cn1ncc2c1CCC(C1c3ccccc3-c3cncn31)C2O` (single isomer, unassigned) [Example 93d], 1400 nM.

On to `Cn1ncc2c1CCC(C1c3ccccc3-c3cncn31)C2O` (single isomer, unassigned) [Example 93e], for which the EC50 is 4300 nM. `Cn1ncc2c1CCC(C1c3ccccc3-c3cncn31)C2O` (single isomer, unassigned) [Example 93f]: the EC50 was 810 nM. As for `Cn1ncc2c1CCC(C1c3ccccc3-c3cncn31)C2O` (single isomer, unassigned) [Example 93g], the figure is more than 25000 nM. Turning to `OC1c2cncnc2CCC1C1c2ccccc2-c2cncn21` (single isomer, unassigned) [Example 94a], the EC50 is 2300 nM. The value for `OC1c2cncnc2CCC1C1c2ccccc2-c2cncn21` (single isomer, unassigned) [Example 94b] was 3100 nM; that for `OC1c2cncnc2CCC1C1c2ccccc2-c2cncn21` (single isomer, unassigned) [Example 94d] was 130 nM. For `OC1c2cncnc2CCC1C1c2ccccc2-c2cncn21` (single isomer, unassigned) [Example 94e], the EC50 was 2000 nM. As for `OC1c2cncnc2CCC1C1c2ccccc2-c2cncn21` (single isomer, unassigned) [Example 94f], the figure is 12000 nM.

On to `OC1c2cncnc2CCC1C1c2ccccc2-c2cncn21` (single isomer, unassigned) [Example 94g], for which the EC50 was 14000 nM. For the compound `OC1c2cncnc2CCC1C1c2ccccc2-c2cncn21` (single isomer, unassigned) [Example 94h], the EC50 was more than 25000 nM. For `OC1c2cc(CF)nn2CCC1C1c2ccccc2-c2cncn21` (single isomer, unassigned) [Example 95a], the EC50 is more than 25000 nM. The value for `OC1c2cc(CF)nn2CCC1C1c2ccccc2-c2cncn21` (single isomer, unassigned) [Example 95b] was 240 nM; that for `CN(C)C(=O)c1ccc2c(c1)CCC(C1c3ccccc3-c3cncn31)C2O` (single isomer, unassigned) [Example 98a] was 73 nM; that for `CN(C)C(=O)c1ccc2c(c1)CCC(C1c3ccccc3-c3cncn31)C2O` (single isomer, unassigned) [Example 98b] was 8700 nM. As for `CN(C)C(=O)c1ccc2c(c1)CCC(C1c3ccccc3-c3cncn31)C2O` (single isomer, unassigned) [Example 98c], the figure is 180 nM. The value for `CN(C)C(=O)c1ccc2c(c1)CCC(C1c3ccccc3-c3cncn31)C2O` (single isomer, unassigned) [Example 98d] was 9500 nM; that for `CN(C)C(=O)c1ccc2c(c1)CCC(C1c3ccccc3-c3cncn31)C2O` (single isomer, unassigned) [Example 98e] was 22000 nM; that for `CN(C)C(=O)c1ccc2c(c1)CCC(C1c3ccccc3-c3cncn31)C2O` (single isomer, unassigned) [Example 98f] was 2500 nM. In the case of `CN(C)C(=O)c1ccc2c(c1)CCC(C1c3ccccc3-c3cncn31)C2O` (single isomer, unassigned) [Example 98g], the EC50 was found to be 860 nM. Turning to `CN(C)C(=O)c1ccc2c(c1)CCC(C1c3ccccc3-c3cncn31)C2O` (single isomer, unassigned) [Example 98h], the concentration giving a half-maximal response (EC50) turned out to be 9800 nM. The value for `OC1COCCC1C1c2cccc(F)c2-c2cncn21` (single isomer, unassigned) [Example 99a] was more than 25000 nM; that for `OC1COCCC1C1c2cccc(F)c2-c2cncn21` (single isomer, unassigned) [Example 99b] was more than 25000 nM.

For `OC1COCCC1C1c2cccc(F)c2-c2cncn21` (single isomer, unassigned) [Example 99c], the EC50 is more than 25000 nM. As to `OC1COCCC1C1c2cccc(F)c2-c2cncn21` (single isomer, unassigned) [Example 99d], the EC50 was 730 nM. The value for `NS(=O)(=O)c1ccc2c(c1)CCC(C1c3ccccc3-c3cncn31)C2O` (single isomer, unassigned) [Example 100a] was 120 nM; that for `NS(=O)(=O)c1ccc2c(c1)CCC(C1c3ccccc3-c3cncn31)C2O` (single isomer, unassigned) [Example 100b] was 1300 nM. `NS(=O)(=O)c1ccc2c(c1)CCC(C1c3ccccc3-c3cncn31)C2O` (single isomer, unassigned) [Example 100c]: the EC50 was 7400 nM. As for `NS(=O)(=O)c1ccc2c(c1)CCC(C1c3ccccc3-c3cncn31)C2O` (single isomer, unassigned) [Example 100d], the figure is more than 25000 nM. As for `NS(=O)(=O)c1ccc2c(c1)CCC(C1c3ccccc3-c3cncn31)C2O` (single isomer, unassigned) [Example 100e], the EC50 came to 1300 nM. Regarding `NS(=O)(=O)c1ccc2c(c1)CCC(C1c3ccccc3-c3cncn31)C2O` (single isomer, unassigned) [Example 100f], the concentration for a half-maximal effect (EC50) was 15000 nM.

On to `NS(=O)(=O)c1ccc2c(c1)CCC(C1c3ccccc3-c3cncn31)C2O` (single isomer, unassigned) [Example 100h], for which the EC50 came to 4800 nM. Regarding `NS(=O)(=O)N1CCC(O)C(C2c3ccccc3-c3cncn32)CC1` (single isomer, unassigned) [Example 101a, 4-hydroxy-5-(5H-imidazo[5,1-a]isoindol-5-yl)azepane-1-sulfonamide], the EC50 was more than 25000 nM.

For `NS(=O)(=O)N1CCC(O)C(C2c3ccccc3-c3cncn32)CC1` (single isomer, unassigned) [Example 101b, 4-hydroxy-5-(5H-imidazo[5,1-a]isoindol-5-yl)azepane-1-sulfonamide], the EC50 stood at 5100 nM.

For `NS(=O)(=O)N1CCC(O)C(C2c3ccccc3-c3cncn32)CC1` (single isomer, unassigned) [Example 101c, 4-hydroxy-5-(5H-imidazo[5,1-a]isoindol-5-yl)azepane-1-sulfonamide], the half-maximal effective concentration (EC50) is more than 25000 nM. On to `OC1c2ccccc2CCC1C1c2ccccc2-c2cncn21` (single isomer, unassigned) [Example 102a], for which the EC50 was determined as 72 nM. As for `OC1c2ccccc2CCC1C1c2ccccc2-c2cncn21` (single isomer, unassigned) [Example 102b], the figure is 19000 nM; as for `OC1c2ccccc2CCC1C1c2ccccc2-c2cncn21` (single isomer, unassigned) [Example 102c], 320 nM. As for `OC1c2ccccc2CCC1C1c2ccccc2-c2cncn21` (single isomer, unassigned) [Example 102d], the figure is 11000 nM.

Take `O[C@@H]1c2ccccc2CC[C@H]1[C@@H]1c2ccccc2-c2cncn21` (single isomer, unassigned) [Example 102g]: the EC50 stood at 350 nM.

For `O[C@@H]1c2ccccc2CC[C@H]1[C@@H]1c2ccccc2-c2cncn21` (single isomer, unassigned) [Example 102h], the EC50 turned out to be 8400 nM. As for `NC(=O)c1ccc2c(n1)CCC(C1c3ccccc3-c3cncn31)C2O` (single isomer, unassigned) [Example 104a], the figure is 2200 nM.

As to `NC(=O)c1ccc2c(n1)CCC(C1c3ccccc3-c3cncn31)C2O` (single isomer, unassigned) [Example 104b], the EC50 was found to be 200 nM.
